The source made the active and inactive calls. No cut-off for these calls is given here.

One compound from ChEMBL document CHEMBL2021805, “Structural polymorphism of human telomere G-quadruplex induced by a pyridyl carboxamide molecule” (Bioorg Med Chem Lett, 2012) can be followed below.

Format in all cases: nucleic-acid assay
Experiment [1] deals with Nucleic Acid. Description: Stabilization of human hybrid-type G-quadruplex G4A in 100 mM Na+ solution at room temperature assessed as formation of anti-parallel structure at 60 uM by CD spectroscopy.
In experiment [2] the test system is Nucleic Acid. Description: Binding affinity to human G-quadruplex Ap-18 substituted 21G at 5 uM up to 1 hr by fluorescence analysis.
Experiment [3] deals with Nucleic Acid. As to the kind of experiment: Stabilization of human G-quadruplex G4A in 100 mM K+ solution assessed as formation of stable parallel structure at 60 uM after 1 day at 37 degC by CD spectroscopy.
For experiment [4], the system named is Nucleic Acid. As to the kind of experiment: Binding affinity to human G-quadruplex FAM-21G at 10 uM after 2 to 24 hrs by native PAGE analysis.
For experiment [5], the system named is Nucleic Acid. Description: Binding affinity to human G-quadruplex Ap-6 substituted 21G at 5 uM up to 1 hr by fluorescence analysis.
Experiment [6] has as its system Nucleic Acid. Description: Binding affinity to human G-quadruplex Ap-6 substituted 21G assessed as fluorescence quenching using ascorbic acid at 5 uM up to 1 hr by fluorescence analysis.
Experiment [7] relates to Nucleic Acid. As to the kind of experiment: Stabilization of human hybrid-type G-quadruplex G4A in 100 mM K+ solution at room temperature assessed as formation of anti-parallel structure at 60 uM by CD spectroscopy.
The test system of experiment [8] is Nucleic Acid. As to the kind of experiment: Binding affinity to human G-quadruplex Ap-12 substituted 21G assessed as fluorescence quenching using ascorbic acid at 5 uM up to 1 hr by fluorescence analysis.
For experiment [9], the system named is Nucleic Acid. Description: Binding affinity to human G-quadruplex Ap-12 substituted 21G at 5 uM up to 1 hr by fluorescence analysis.
Experiment [10] concerns Nucleic Acid. As to the kind of experiment: Stabilization of human G-quadruplex G4A in 100 mM K+ solution assessed as time required to the formation of stable snti-parallel quadruplex structure at 60 uM at 37 degC by CD spectroscopy.
The subject of experiment [11] is Nucleic Acid. Description: Binding affinity to human G-quadruplex Ap-18 substituted 21G assessed as fluorescence quenching using ascorbic acid at 5 uM up to 1 hr by fluorescence analysis.
Experiment [12] concerns Nucleic Acid. As to the kind of experiment: Binding affinity to human G-quadruplex FAM-21G at 20 uM by native PAGE analysis.
Experiment [13] has as its system Nucleic Acid. Description: Stabilization of human G-quadruplex G4A in 100 mM K+ solution assessed as time required to the formation of stable parallel structure at 60 uM at 37 degC by CD spectroscopy.
Experiment [14] concerns Nucleic Acid. Description: Stabilization of human G-quadruplex G4A in 100 mM K+ solution assessed as formation of stable parallel structure at 60 uM after heating at 95 degC and cooling to room temperature by CD spectroscopy.
The subject of experiment [15] is Nucleic Acid. Description: Stabilization of human G-quadruplex G4A in 100 mM K+ solution assessed as formation of stable parallel structure measuring transformation rate constant at 60 uM after 1 day at 37 degC by CD spectroscopy.

As for `C[N+]1(CC(=O)Nc2cccc(NC(=O)c3cccc(C(=O)Nc4cccc(NC(=O)C[N+]5(C)CCCCC5)n4)n3)n2)CCCCC1`, the result in the experiment with Nucleic Acid [1] was inactive. The result in the experiment with Nucleic Acid [2], in the experiment with Nucleic Acid [4], in the experiment with Nucleic Acid [5], in the experiment on Nucleic Acid [6], with Nucleic Acid [7] and with Nucleic Acid [8] was Active. Also, the outcome with Nucleic Acid [9], with Nucleic Acid [11], in the experiment with Nucleic Acid [12] and in the experiment with Nucleic Acid [14] was Active. The figures for the Activity in the experiment on Nucleic Acid [3] and with Nucleic Acid [15] were 99% and 6.2 ×10⁻⁵ /s, respectively. The TIME was 3 h in the experiment with Nucleic Acid [10] and 20 h in the experiment on Nucleic Acid [13].
